Experimental data: ChEMBL document CHEMBL3885881, “DrugMatrix”

Species on record: Rattus norvegicus
Test: DrugMatrix - Regimen: Daily Repeat
Assay type: toxicity, organism-based, Sprague-Dawley
Parameters: regimen Daily Repeat, gender Male, age 6-8 weeks
Settings: in vivo, po, route oral GAVAGE, vehicle 100 % WATER; for ABSOLUTE BASOPHIL / ABSOLUTE EOSINOPHIL / ABSOLUTE LYMPHOCYTE / ABSOLUTE MONOCYTE / ABSOLUTE SEGMENTED NEUTROPHIL / BASOPHIL / EOSINOPHIL / ERYTHROCYTE COUNT / HEMATOCRIT / HEMOGLOBIN / LEUKOCYTE COUNT / LYMPHOCYTE / MEAN CORPUSCULAR HEMOGLOBIN / MEAN CORPUSCULAR HEMOGLOBIN CONCENTRATION / MEAN CORPUSCULAR VOLUME / MONOCYTE / NEUTROPHIL / NUCLEATED RED BLOOD CELLS / PLATELET COUNT: tissue Blood; for ALANINE AMINOTRANSFERASE / ALBUMIN / ALKALINE PHOSPHATASE / ASPARTATE AMINOTRANSFERASE / BLOOD UREA NITROGEN / CARBON DIOXIDE / CHLORIDE / CHOLESTEROL / CREATINE PHOSPHOKINASE / CREATININE / GLUCOSE / LACTATE DEHYDROGENASE / LIPASE / PHOSPHORUS / POTASSIUM / SODIUM / TOTAL BILIRUBIN / TOTAL PROTEIN / URIC ACID: tissue Plasma
[1] = 10 mg/kg, 120 h, dose level Low, time 5 day
[2] = 900 mg/kg, 72 h, dose level High, time 3 day
[3] = 900 mg/kg, 120 h, dose level High, time 5 day

## CC(C)(C)NC[C@H](O)COc1nsnc1N1CCOCC1 [TIMOLOL]
[1]
  ABSOLUTE BASOPHIL: 0 CELLS/uL
  ABSOLUTE EOSINOPHIL: 115.33 CELLS/uL
  ABSOLUTE LYMPHOCYTE: 10711.67 CELLS/uL
  ABSOLUTE MONOCYTE: 97.67 CELLS/uL
  ABSOLUTE SEGMENTED NEUTROPHIL: 1075.33 CELLS/uL
  BASOPHIL: 0%
  EOSINOPHIL: 0.67%
  ERYTHROCYTE COUNT: 5.23 x10E6/uL
  HEMATOCRIT: 33.1%
  HEMOGLOBIN: 12.83 G/DL
  LEUKOCYTE COUNT: 12 x10E3/uL
  LYMPHOCYTE: 90%
  MEAN CORPUSCULAR HEMOGLOBIN: 24.53 pg
  MEAN CORPUSCULAR HEMOGLOBIN CONCENTRATION: 38.77 G/DL
  MEAN CORPUSCULAR VOLUME: 63.27 fL
  MONOCYTE: 0.67%
  NEUTROPHIL: 8.67%
  NUCLEATED RED BLOOD CELLS: 0 /100WBC
  PLATELET COUNT: 1050 x10E3/uL
  ALANINE AMINOTRANSFERASE: 51 u/L
  ALBUMIN: 4.03 G/DL
  ALKALINE PHOSPHATASE: 411.33 u/L
  ASPARTATE AMINOTRANSFERASE: 79.33 u/L
  BLOOD UREA NITROGEN: 15 mg/dL
  CARBON DIOXIDE: 29 mmol/L
  CHLORIDE: 101.33 MEQ/L
  CHOLESTEROL: 71 mg/dL
  CREATINE PHOSPHOKINASE: 333 u/L
  CREATININE: 0.16 mg/dL
  GLUCOSE: 180.33 mg/dL
  LACTATE DEHYDROGENASE: 129.33 u/L
  LIPASE: 9 u/L
  PHOSPHORUS: 11.93 mg/dL
  POTASSIUM: 5.38 MEQ/L
  SODIUM: 144.33 MEQ/L
  TOTAL BILIRUBIN: 0.13 mg/dL
  TOTAL PROTEIN: 6.1 G/DL
  URIC ACID: 0.73 mg/dL
[2]
  ABSOLUTE BASOPHIL: 0 CELLS/uL
  ABSOLUTE EOSINOPHIL: 0 CELLS/uL
  ABSOLUTE LYMPHOCYTE: 11176.67 CELLS/uL
  ABSOLUTE MONOCYTE: 84.33 CELLS/uL
  ABSOLUTE SEGMENTED NEUTROPHIL: 872.33 CELLS/uL
  BASOPHIL: 0%
  EOSINOPHIL: 0%
  ERYTHROCYTE COUNT: 5.11 x10E6/uL
  HEMATOCRIT: 32.53%
  HEMOGLOBIN: 12.93 G/DL
  LEUKOCYTE COUNT: 12.13 x10E3/uL
  LYMPHOCYTE: 92%
  MEAN CORPUSCULAR HEMOGLOBIN: 25.27 pg
  MEAN CORPUSCULAR HEMOGLOBIN CONCENTRATION: 39.77 G/DL
  MEAN CORPUSCULAR VOLUME: 63.67 fL
  MONOCYTE: 0.67%
  NEUTROPHIL: 7.33%
  NUCLEATED RED BLOOD CELLS: 0.33 /100WBC
  PLATELET COUNT: 1179.33 x10E3/uL
  ALANINE AMINOTRANSFERASE: 48 u/L
  ALBUMIN: 3.73 G/DL
  ALKALINE PHOSPHATASE: 389 u/L
  ASPARTATE AMINOTRANSFERASE: 98 u/L
  BLOOD UREA NITROGEN: 12.67 mg/dL
  CARBON DIOXIDE: 29.33 mmol/L
  CHLORIDE: 101.67 MEQ/L
  CHOLESTEROL: 77.33 mg/dL
  CREATINE PHOSPHOKINASE: 901.67 u/L
  CREATININE: 0.28 mg/dL
  GLUCOSE: 148.67 mg/dL
  LACTATE DEHYDROGENASE: 189.33 u/L
  LIPASE: 11.33 u/L
  PHOSPHORUS: 13.97 mg/dL
  POTASSIUM: 7.3 MEQ/L
  SODIUM: 143.43 MEQ/L
  TOTAL BILIRUBIN: 0.17 mg/dL
  TOTAL PROTEIN: 5.43 G/DL
  URIC ACID: 1.67 mg/dL
[3]
  ABSOLUTE BASOPHIL: 0 CELLS/uL
  ABSOLUTE EOSINOPHIL: 114.33 CELLS/uL
  ABSOLUTE LYMPHOCYTE: 9946 CELLS/uL
  ABSOLUTE MONOCYTE: 153 CELLS/uL
  ABSOLUTE SEGMENTED NEUTROPHIL: 1220 CELLS/uL
  BASOPHIL: 0%
  EOSINOPHIL: 1%
  ERYTHROCYTE COUNT: 5.75 x10E6/uL
  HEMATOCRIT: 36.17%
  HEMOGLOBIN: 13.83 G/DL
  LEUKOCYTE COUNT: 11.43 x10E3/uL
  LYMPHOCYTE: 87%
  MEAN CORPUSCULAR HEMOGLOBIN: 24.07 pg
  MEAN CORPUSCULAR HEMOGLOBIN CONCENTRATION: 38.27 G/DL
  MEAN CORPUSCULAR VOLUME: 62.97 fL
  MONOCYTE: 1.33%
  NEUTROPHIL: 10.67%
  NUCLEATED RED BLOOD CELLS: 0 /100WBC
  PLATELET COUNT: 1330.33 x10E3/uL
  ALANINE AMINOTRANSFERASE: 48 u/L
  ALBUMIN: 3.63 G/DL
  ALKALINE PHOSPHATASE: 402.67 u/L
  ASPARTATE AMINOTRANSFERASE: 107.33 u/L
  BLOOD UREA NITROGEN: 14.33 mg/dL
  CARBON DIOXIDE: 23.67 mmol/L
  CHLORIDE: 103.67 MEQ/L
  CHOLESTEROL: 78.67 mg/dL
  CREATINE PHOSPHOKINASE: 707.33 u/L
  CREATININE: 0.14 mg/dL
  GLUCOSE: 142 mg/dL
  LACTATE DEHYDROGENASE: 252.33 u/L
  LIPASE: 10 u/L
  PHOSPHORUS: 11.6 mg/dL
  POTASSIUM: 6.41 MEQ/L
  SODIUM: 144.37 MEQ/L
  TOTAL BILIRUBIN: 0.17 mg/dL
  TOTAL PROTEIN: 5.27 G/DL
  URIC ACID: 1.5 mg/dL
